Molecular target: T1, human NaPi-IIb (Homo sapiens, UniProt O95436)
T1 construct: expressed in transfected cells
T1 sequence (O95436 1-690): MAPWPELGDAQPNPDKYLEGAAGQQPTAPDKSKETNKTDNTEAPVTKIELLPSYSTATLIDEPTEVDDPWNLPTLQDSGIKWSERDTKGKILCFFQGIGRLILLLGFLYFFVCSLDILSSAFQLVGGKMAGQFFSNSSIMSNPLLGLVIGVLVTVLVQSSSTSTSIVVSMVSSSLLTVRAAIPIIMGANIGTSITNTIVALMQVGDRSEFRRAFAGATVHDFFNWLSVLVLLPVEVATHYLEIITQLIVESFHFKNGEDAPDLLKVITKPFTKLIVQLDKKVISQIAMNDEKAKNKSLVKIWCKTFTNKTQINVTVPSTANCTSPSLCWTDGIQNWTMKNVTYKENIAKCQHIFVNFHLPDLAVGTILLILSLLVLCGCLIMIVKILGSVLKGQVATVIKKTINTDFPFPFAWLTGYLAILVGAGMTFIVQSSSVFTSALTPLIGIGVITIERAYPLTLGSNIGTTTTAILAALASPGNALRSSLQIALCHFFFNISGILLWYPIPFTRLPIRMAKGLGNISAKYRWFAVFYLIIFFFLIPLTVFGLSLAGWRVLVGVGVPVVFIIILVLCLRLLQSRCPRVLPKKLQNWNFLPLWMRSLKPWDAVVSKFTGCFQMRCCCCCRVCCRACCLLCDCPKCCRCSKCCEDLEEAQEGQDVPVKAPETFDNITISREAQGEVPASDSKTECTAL
Assay: Inhibitory effect on 33PO4 uptake into human NaPi-IIb-expressing CHO cells
Type: cell-based
Conditions: read-out: IC50
Outline: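 Uptake of ³³PO4 was measured by scintillation counting after ice-cold buffer A washes. Cells were CHO stably expressing human NaPi-IIb, seeded overnight, and exposed to ³³PO4 in buffer A at room temperature.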

Row | Compound | IC50 [µM]
1 | CN1N(Cc2cccc(F)c2F)C(=O)C(C(=O)Nc2ccc(C(F)(F)F)cc2-c2cc(C#N)ncn2)=C(O)C1(C)C [Example 303] | 16
2 | CN1N(Cc2cccc(F)c2F)C(=O)C(C(=O)Nc2ccc(C(F)(F)F)nc2-c2cncc(C(F)(F)F)c2)=C(O)C1(C)C [Example 306] | 8.4
3 | CN1N(Cc2cccc(F)c2F)C(=O)C(C(=O)Nc2cc(C(F)(F)F)ccc2-c2ccc(C(F)(F)F)nc2)=C(O)C1(C)C [Example 307] | 4.6
4 | CN1N(Cc2cccc(F)c2F)C(=O)C(C(=O)Nc2ccc(Cl)cc2-c2ccc(C(F)(F)F)nc2)=C(O)C1(C)C [Example 309] | 6.5
5 | Cc1c(C#N)ncnc1-c1cc(C(F)(F)F)ccc1NC(=O)C1=C(O)C(C)(C)N(C)N(Cc2cccc(F)c2F)C1=O [Example 311] | 8.2
6 | CN1N(Cc2cccc(F)c2F)C(=O)C(C(=O)Nc2ccc(C(F)(F)F)cc2-c2ncnc(C#N)c2Cl)=C(O)C1(C)C [Example 312] | 6.3
7 | CN1N(Cc2ccc(OCCN3CCOCC3)c(F)c2F)C(=O)C(C(=O)Nc2ccc(C(F)(F)F)cc2-c2cc(C(F)(F)F)ncn2)=C(O)C1(C)C [Example 313, 2-[[2,3-Difluoro-4-(2-morpholin-4-ylethoxy)phenyl]methyl]-5-hydroxy-1,6,6-trimethyl-3-oxo-N-[4-(trifluoromethyl)-2-[6-(trifluoromethyl)pyrimidin-4-yl]phenyl]pyridazine-4-carboxamide] | 18.3
8 | CN1N(Cc2ccc(OCCN3CCOCC3)c(F)c2F)C(=O)C(C(=O)Nc2ccc(C(F)(F)F)cc2-c2cc(C(F)(F)F)ncn2)=C(O)C12CCC2 [Example 317, 6-[[2,3-Difluoro-4-(2-morpholin-4-ylethoxy)phenyl]methyl]-9-hydroxy-5-methyl-7-oxo-N-[4-(trifluoromethyl)-2-[6-(trifluoromethyl)pyrimidin-4-yl]phenyl]-5,6-diazaspiro[3.5] non-8-ene-8-carboxamide] | 9.6
9 | CN1N(Cc2ccc(OCCCC(=O)O)c(F)c2F)C(=O)C(C(=O)Nc2ccc(C(F)(F)F)cc2-c2cc(C(F)(F)F)ncn2)=C(O)C12CCCC2 [Example 332, 4-[2,3-Difluoro-4-[[10-hydroxy-6-methyl-8-oxo-9-[[4-(trifluoromethyl)-2-[6-(trifluoromethyl)pyrimidin-4-yl]phenyl]carbamoyl]-6,7-diazaspiro[4.5]dec-9-en-7-yl]methyl]phenoxy]butanoate] | 23.9
10 | CN1N(Cc2ccc(OCCCCCC(=O)O)c(F)c2F)C(=O)C(C(=O)Nc2ccc(C(F)(F)F)cc2-c2cc(C(F)(F)F)ncn2)=C(O)C12CCCC2 [Example 334] | 10.3
11 | CN1N(Cc2ccc(OCCCCCCC(=O)O)c(F)c2F)C(=O)C(C(=O)Nc2ccc(C(F)(F)F)cc2-c2cc(C(F)(F)F)ncn2)=C(O)C12CCCC2 [Example 335] | 8.7
12 | CN1N(Cc2ccc(OCCN3[C@@H]4COC[C@H]3C4)c(F)c2F)C(=O)C(C(=O)Nc2ccc(C(F)(F)F)cc2-c2cc(C(F)(F)F)ncn2)=C(O)C12CCC2 [Example 339] | 19.1
13 | CN1N(Cc2ccc(OCCN3C4CCC3COC4)c(F)c2F)C(=O)C(C(=O)Nc2ccc(C(F)(F)F)cc2-c2cc(C(F)(F)F)ncn2)=C(O)C12CCC2 [Example 340] | 10
14 | CN1N(Cc2ccc(OCCN3CCOCC3(C)C)c(F)c2F)C(=O)C(C(=O)Nc2ccc(C(F)(F)F)cc2-c2cc(C(F)(F)F)ncn2)=C(O)C12CCC2 [Example 341] | 7.6
15 | COC(=O)CN(C)CCOc1ccc(CN2C(=O)C(C(=O)Nc3ccc(C(F)(F)F)cc3-c3cc(C(F)(F)F)ncn3)=C(O)C3(CCC3)N2C)c(F)c1F [Example 346] | 6.9
16 | CN(CCO)CCOc1ccc(CN2C(=O)C(C(=O)Nc3ccc(C(F)(F)F)cc3-c3cc(C(F)(F)F)ncn3)=C(O)C3(CCC3)N2C)c(F)c1F [Example 347] | 25.2

Continued, values first:

Row | IC50 [µM] | Compound
17 | 2.6 | CN1N(Cc2cccc(F)c2F)C(=O)C(C(=O)Nc2ccc(C(F)(F)F)cc2-c2ccc(C(F)(F)F)nc2)=C(O)C12CCC2 [Example 301]
18 | 7.8 | COc1cc(-c2cc(C(F)(F)F)ccc2NC(=O)C2=C(O)C(C)(C)N(C)N(Cc3cccc(F)c3F)C2=O)cnc1C#N [Example 302]
19 | 3.5 | CN1N(Cc2cccc(F)c2F)C(=O)C(C(=O)Nc2ccc(C(F)(F)F)nc2-c2ccc(C(F)(F)F)nc2)=C(O)C1(C)C [Example 304]
20 | 5.9 | CN1N(Cc2cccc(F)c2F)C(=O)C(C(=O)Nc2ccc(C(F)(F)F)cc2-c2cncc(C(F)(F)F)c2)=C(O)C1(C)C [Example 305]
21 | 12.6 | CN1N(Cc2cccc(F)c2F)C(=O)C(C(=O)Nc2ccc(C(F)(F)F)cc2-c2ccc(S(=O)(=O)N(C)C)cc2)=C(O)C1(C)C [Example 308]
22 | 4.7 | CSc1ccc(-c2cc(C(F)(F)F)ccc2NC(=O)C2=C(O)C(C)(C)N(C)N(Cc3cccc(F)c3F)C2=O)cn1 [Example 310]
23 | 11.8 | CN1N(Cc2ccc(OCCN3CCOCC3)c(F)c2F)C(=O)C(C(=O)Nc2ccc(C(F)(F)F)cc2-c2ccc(C(F)(F)F)nc2)=C(O)C1(C)C [Example 314, 2-[[2,3-Difluoro-4-(2-morpholin-4-ylethoxy)phenyl]methyl]-5-hydroxy-1,6,6-trimethyl-3-oxo-N-[4-(trifluoromethyl)-2-[6-(trifluoromethyl)pyridin-3-yl]phenyl]pyridazine-4-carboxamide]
24 | 9.8 | CN1N(Cc2ccc(C#CCN3CCOCC3)c(F)c2F)C(=O)C(C(=O)Nc2ccc(C(F)(F)F)cc2-c2cc(C(F)(F)F)ncn2)=C(O)C1(C)C [Example 315]
25 | 14.2 | CN1N(Cc2ccc(C#CCN3CCOCC3)c(F)c2F)C(=O)C(C(=O)Nc2ccc(Cl)cc2-c2cc(C(F)(F)F)ncn2)=C(O)C1(C)C [Example 316]
26 | 8.6 | CN1N(Cc2ccc(OCCN3CCOCC3)c(F)c2F)C(=O)C(C(=O)Nc2ccc(C(F)(F)F)cc2-c2cc(C(F)(F)F)ncn2)=C(O)C12CCCC2 [Example 318, 7-[[2,3-Difluoro-4-(2-morpholin-4-ylethoxy)phenyl]methyl]-10-hydroxy-6-methyl-8-oxo-N-[4-(trifluoromethyl)-2-[6-(trifluoromethyl)pyrimidin-4-yl]phenyl]-6,7-diazaspiro[4.5]dec-9-ene-9-carboxamide]
27 | 19.7 | CN1N(Cc2ccc(OCC(=O)N3CCOCC3)c(F)c2F)C(=O)C(C(=O)Nc2ccc(C(F)(F)F)cc2-c2cc(C(F)(F)F)ncn2)=C(O)C12CCC2 [Example 336, 8-[[2,3-Difluoro-4-(2-morpholin-2-oxo-ethoxy)phenyl]methyl]-5-hydroxy-9-methyl-7-oxo-N-[4-(trifluoromethyl)-2-[6-(trifluoromethyl)pyrimidin-4-yl]phenyl]-8,9-diazaspiro[3.5]non-5-ene-6-carboxamide]
28 | 17 | CN1N(Cc2ccc(OCCN3CCOC(=O)C3)c(F)c2F)C(=O)C(C(=O)Nc2ccc(C(F)(F)F)cc2-c2cc(C(F)(F)F)ncn2)=C(O)C12CCC2 [Example 337, 8-[[2,3-Difluoro-4-[2-(2-oxomorpholin-4-yl)ethoxy]phenyl]methyl]-5-hydroxy-9-methyl-7-oxo-N-[4-(trifluoromethyl)-2-[6-(trifluoromethyl)pyrimidin-4-yl]phenyl]-8,9-diazaspiro[3.5]non-5-ene-6-carboxamide]
29 | 13.4 | CN(CCOc1ccc(CN2C(=O)C(C(=O)Nc3ccc(C(F)(F)F)cc3-c3cc(C(F)(F)F)ncn3)=C(O)C3(CCC3)N2C)c(F)c1F)C1CCOC1 (stereo not drawn) [Example 338, 6-[[2,3-Difluoro-4-[2-[methyl(oxolan-3-yl)amino]ethoxy]phenyl]methyl]-9-hydroxy-5-methyl-7-oxo-N-[4-(trifluoromethyl)-2-[6-(trifluoromethyl)pyrimidin-4-yl]phenyl]-5,6-diazaspiro[3.5]non-8-ene-8-carboxamide]
30 | 8.8 | CN1N(Cc2ccc(OCCN3CCOC(C)(C)C3)c(F)c2F)C(=O)C(C(=O)Nc2ccc(C(F)(F)F)cc2-c2cc(C(F)(F)F)ncn2)=C(O)C12CCC2 [Example 342]
31 | 21 | C[C@H]1COC[C@H](C)N1CCOc1ccc(CN2C(=O)C(C(=O)Nc3ccc(C(F)(F)F)cc3-c3cc(C(F)(F)F)ncn3)=C(O)C3(CCC3)N2C)c(F)c1F [Example 343]
32 | 13.7 | C[C@@H]1COC[C@H](C)N1CCOc1ccc(CN2C(=O)C(C(=O)Nc3ccc(C(F)(F)F)cc3-c3cc(C(F)(F)F)ncn3)=C(O)C3(CCC3)N2C)c(F)c1F [Example 344]

Same assay, conditions: read-out: IC50 against 33PO4 uptake into human NaPi-IIb-expressing cells

Row | IC50 [µM] | Compound
33 | 26.1 | COCCN(CCOC)CCOc1ccc(CN2C(=O)C(C(=O)Nc3ccc(C(F)(F)F)cc3-c3cc(C(F)(F)F)ncn3)=C(O)C3(CCC3)N2C)c(F)c1F [Example 348]
34 | 8.3 | COCC(C)(C)N(C)CCOc1ccc(CN2C(=O)C(C(=O)Nc3ccc(C(F)(F)F)cc3-c3cc(C(F)(F)F)ncn3)=C(O)C3(CCC3)N2C)c(F)c1F [Example 349]
35 | 16.9 | COC(C)(C)CN(C)CCOc1ccc(CN2C(=O)C(C(=O)Nc3ccc(C(F)(F)F)cc3-c3cc(C(F)(F)F)ncn3)=C(O)C3(CCC3)N2C)c(F)c1F [Example 350]
36 | 25.5 | CN1N(Cc2ccc(OCCN(CCO)CCO)c(F)c2F)C(=O)C(C(=O)Nc2ccc(C(F)(F)F)cc2-c2cc(C(F)(F)F)ncn2)=C(O)C12CCC2 [Example 351]

Source: patent US9499553B2 (CHUGAI SEIYAKU KABUSHIKI KAISHA, priority 2013, dated 2016)
